Data: the supplement of paper PMC10307832

Legend:
Test in all cases: relative viability (nuclei count vs DMSO), 5 days (fraction); higher = more cells survive
[1] = compound: CC(C)=CC[C@@H](O)C1=CC(=O)c2c(O)ccc(O)c2C1=O [Shikonin] + CC(=O)c1c(C)c2cnc(Nc3ccc(N4CCNCC4)cn3)nc2n(C2CCCC2)c1=O [Palbociclib] (partner 0.5 µM)
Outline: (§1)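 A single step with final 0.05% Triton X-100, 1% formaldehyde and 1 ug/ml Hoechst fixed the cells and stained nuclei 5 days after treatment. Lung cancer cell lines in 1536-well plates had been treated by pin tool the day after seeding with one drug alone or a fixed anchor-drug dose plus five library-drug doses (not always all listed) in √10 steps, and nuclei were counted on 4× images. Relative viability is the ratio of nuclei in treated wells to nuclei in vehicle wells, taken as the median of duplicate plates.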

[2] = compound: CC(C)N(CCCNC(=O)Nc1ccc(C(C)(C)C)cc1)C[C@H]1O[C@@H](n2ccc3c(N)ncnc32)[C@H](O)[C@@H]1O + COc1cc2c(Oc3ccc(NC(=O)C4(C(=O)Nc5ccc(F)cc5)CC4)cc3F)ccnc2cc1OCCCN1CCOCC1 [Foretinib] (partner 0.25 µM)
Outline: as §1

[3] = compound: CC(C)N(CCCNC(=O)Nc1ccc(C(C)(C)C)cc1)C[C@H]1O[C@@H](n2ccc3c(N)ncnc32)[C@H](O)[C@@H]1O + Cc1nc(Nc2ncc(C(=O)Nc3c(C)cccc3Cl)s2)cc(N2CCN(CCO)CC2)n1 [Dasatinib] (partner 0.075 µM)
Outline: as §1

[4] = compound: CC(C)N(CCCNC(=O)Nc1ccc(C(C)(C)C)cc1)C[C@H]1O[C@@H](n2ccc3c(N)ncnc32)[C@H](O)[C@@H]1O + Nc1nc2[nH]cc(CCc3ccc(C(=O)N[C@@H](CCC(=O)O)C(=O)O)cc3)c2c(=O)[nH]1 [Pemetrexed] (partner 0.2 µM)
Outline: as §1

## UMC-11
[1]; first compound 0.01 µM
  relative viability: 0.297
[1]; first compound 0.1 µM
  relative viability: 0.351
[1]; first compound 0.3162 µM
  relative viability: 0.335
[1]; first compound 1 µM
  relative viability: 0.338
[2]; first compound 0.08 µM
  relative viability: 0.979
[2]; first compound 0.253 µM
  relative viability: 0.984
[2]; first compound 0.8 µM
  relative viability: 1.06
[2]; first compound 2.53 µM
  relative viability: 0.975
[2]; first compound 8 µM
  relative viability: 1.02
[3]; first compound 0.08 µM
  relative viability: 0.461
[3]; first compound 0.253 µM
  relative viability: 0.422
[3]; first compound 0.8 µM
  relative viability: 0.436
[3]; first compound 2.53 µM
  relative viability: 0.486
[3]; first compound 8 µM
  relative viability: 0.492
[4]; first compound 0.08 µM
  relative viability: 0.803
[4]; first compound 0.253 µM
  relative viability: 0.748
[4]; first compound 0.8 µM
  relative viability: 0.791
[4]; first compound 2.53 µM
  relative viability: 0.79
[4]; first compound 8 µM
  relative viability: 0.806
